Test results: ChEMBL document CHEMBL1275354, “Anticonvulsant activity of 2,4(1H)-diarylimidazoles in mice and rats acute seizure models” (Bioorg Med Chem, 2010)
The source made the active and inactive calls. No cut-off for these calls is given here.

Columns and labels:
Mus musculus [1] = test: Neurotoxicity in albino CF1 mouse assessed as minimal motor impairment at 30 mg/kg, ip after 4 hrs by rotarod test; type: toxicity, organism-based; set-up: dose 30 mg/kg, route intraperitoneal; conditions: in vivo
Mus musculus [2] = test: Anticonvulsant activity against subcutaneous metrazole-induced seizures in ip dosed albino CF1 mouse assessed as minimum effective dose after 4 hrs; type: functional; conditions: albino CF1, 4 h, read-out: MED
Mus musculus [3] = test: Anticonvulsant activity against maximal electroshock-induced seizures in ip dosed albino CF1 mouse assessed as minimum effective dose after 0.5 hrs; type: functional; conditions: read-out: MED
Mus musculus [4] = test: Anticonvulsant activity in albino CF1 mouse assessed as protection against maximal electroshock-induced seizures at 100 mg/kg, ip after 4 hrs; type: functional, organism-based; set-up: dose 100 mg/kg
Mus musculus [5] = test: Anticonvulsant activity against maximal electroshock-induced seizures in ip dosed albino CF1 mouse assessed as minimum effective dose after 4 hrs; type: functional; conditions: read-out: MED
Mus musculus [6] = test: Neurotoxicity in albino CF1 mouse assessed as minimal motor impairment at 30 to 300 mg/kg, po after 4 hrs by rotarod test; type: toxicity, organism-based; set-up: dose 30-300 mg/kg, route oral; conditions: in vivo
Mus musculus [7] = test: Anticonvulsant activity against subcutaneous metrazole-induced seizures in ip dosed albino CF1 mouse assessed as minimum effective dose after 0.5 hrs; type: functional; conditions: albino CF1, 0.5 h, read-out: MED
Mus musculus [8] = test: Neurotoxicity in ip dosed albino CF1 mouse assessed as minimum dose required to cause toxicity after 0.5 hrs by rotarod test; type: organism-based; conditions: in vivo
Mus musculus [9] = test: Anticonvulsant activity in albino CF1 mouse assessed as protection against maximal electroshock-induced seizures at 100 mg/kg, ip after 0.5 hrs; type: functional, organism-based; set-up: dose 100 mg/kg
Mus musculus [10] = test: Anticonvulsant activity in albino CF1 mouse assessed as protection against subcutaneous metrazole-induced seizures at 100 mg/kg, ip after 4 hrs; type: functional, organism-based; set-up: dose 100 mg/kg
Mus musculus [11] = test: Anticonvulsant activity in albino CF1 mouse assessed as protection against maximal electroshock-induced seizures at 30 mg/kg, ip after 0.5 hrs; type: functional, organism-based; set-up: dose 30 mg/kg
Mus musculus [12] = test: Neurotoxicity in albino CF1 mouse assessed as minimal motor impairment at 100 mg/kg, ip after 4 hrs by rotarod test; type: toxicity, organism-based; set-up: dose 100 mg/kg, route intraperitoneal; conditions: in vivo
Mus musculus [13] = test: Neurotoxicity in ip dosed albino CF1 mouse assessed as minimum dose required to cause toxicity after 4 hrs by rotarod test; type: organism-based; conditions: in vivo
Mus musculus [14] = test: Anticonvulsant activity in albino CF1 mouse assessed as protection against maximal electroshock-induced seizures at 300 mg/kg, ip after 4 hrs; type: functional, organism-based; set-up: dose 300 mg/kg
Mus musculus [15] = test: Neurotoxicity in albino CF1 mouse assessed as minimal motor impairment at 30 to 300 mg/kg, ip after 0.5 hrs by rotarod test; conditions: in vivo
Mus musculus [16] = test: Anticonvulsant activity in albino CF1 mouse assessed as protection against maximal electroshock-induced seizures at 30 mg/kg, ip after 4 hrs; type: functional, organism-based; set-up: dose 30 mg/kg
Mus musculus [17] = test: Anticonvulsant activity in albino CF1 mouse assessed as protection against subcutaneous metrazole-induced seizures at 30 mg/kg, ip after 4 hrs; type: functional, organism-based; set-up: dose 30 mg/kg
Mus musculus [18] = test: Neurotoxicity in albino CF1 mouse assessed as minimal motor impairment at 300 mg/kg, ip after 4 hrs by rotarod test; type: toxicity, organism-based; set-up: dose 300 mg/kg, route intraperitoneal; conditions: in vivo
Mus musculus [19] = test: Anticonvulsant activity in albino CF1 mouse assessed as protection against subcutaneous metrazole-induced seizures at 30 mg/kg, ip after 0.5 hrs; type: functional, organism-based; set-up: dose 30 mg/kg
Mus musculus [20] = test: Neurotoxicity in albino CF1 mouse assessed as minimal motor impairment at 30 mg/kg, ip after 0.5 hrs by rotarod test; type: toxicity, organism-based; set-up: dose 30 mg/kg, route intraperitoneal; conditions: in vivo
Mus musculus [21] = test: Anticonvulsant activity in albino CF1 mouse assessed as protection against maximal electroshock-induced seizures at 300 mg/kg, ip after 0.5 hrs; type: functional, organism-based; set-up: dose 300 mg/kg
Mus musculus [22] = test: Anticonvulsant activity in albino CF1 mouse assessed as protection against subcutaneous metrazole-induced seizures at 100 mg/kg, ip after 0.5 hrs; type: functional, organism-based; set-up: dose 100 mg/kg
Mus musculus [23] = test: Neurotoxicity in albino CF1 mouse assessed as minimal motor impairment at 300 mg/kg, ip after 0.5 hrs by rotarod test; type: toxicity, organism-based; set-up: dose 300 mg/kg, route intraperitoneal; conditions: in vivo
Mus musculus [24] = test: Anticonvulsant activity in albino CF1 mouse assessed as protection against subcutaneous metrazole-induced seizures at 300 mg/kg, ip after 0.5 hrs; type: functional, organism-based; set-up: dose 300 mg/kg
Mus musculus [25] = test: Neurotoxicity in albino CF1 mouse assessed as minimal motor impairment at 100 mg/kg, ip after 0.5 hrs by rotarod test; type: toxicity, organism-based; set-up: dose 100 mg/kg, route intraperitoneal; conditions: in vivo
Mus musculus [26] = test: Anticonvulsant activity in albino CF1 mouse assessed as protection against subcutaneous metrazole-induced seizures at 300 mg/kg, ip after 4 hrs; type: functional, organism-based; set-up: dose 300 mg/kg

SMILES	Activity (Mus musculus [1])	minimal effective dose (Mus musculus [2]) [mg/kg]	minimal effective dose (Mus musculus [3]) [mg/kg]	Activity (Mus musculus [4])	minimal effective dose (Mus musculus [5]) [mg/kg]	Activity (Mus musculus [6])	minimal effective dose (Mus musculus [7]) [mg/kg]	MED (Mus musculus [8]) [mg/kg]	Activity (Mus musculus [10])	Activity (Mus musculus [11])	Activity (Mus musculus [12])	MED (Mus musculus [13]) [mg/kg]	Activity (Mus musculus [15])	Activity (Mus musculus [16])	Activity (Mus musculus [17])	Activity (Mus musculus [18])	Activity (Mus musculus [19])	Activity (Mus musculus [20])	Activity (Mus musculus [21])	Activity (Mus musculus [22])	further results
c1ccc(-c2c[nH]c(C3CCCCC3)n2)cc1	Non-toxic	> 300	> 300	inactive	> 300	Non-toxic	> 300	100	inactive	inactive	Non-toxic	> 300	Non-toxic	inactive	inactive	Non-toxic	inactive	Non-toxic			Activity (Mus musculus [9]): inactive; Activity (Mus musculus [14]): inactive
c1ccc(-c2c[nH]c(-c3ccncc3)n2)cc1	Non-toxic	> 300	100		100		> 300	100	inactive	inactive	Non-toxic	100	Non-toxic	inactive	inactive	Toxic	inactive	Non-toxic	Active	inactive	Activity (Mus musculus [14]): Active; Activity (Mus musculus [23]): Toxic; Activity (Mus musculus [24]): inactive
O=[N+]([O-])c1ccc(-c2nc(-c3ccccc3)c[nH]2)cc1	Non-toxic	100	100		100	Non-toxic	> 300	> 300	inactive	inactive	Non-toxic	> 300	Non-toxic	inactive	inactive	Non-toxic	inactive	Non-toxic	Active	inactive	Activity (Mus musculus [14]): Active; Activity (Mus musculus [23]): Non-toxic; Activity (Mus musculus [25]): Non-toxic; Activity (Mus musculus [24]): inactive
c1ccc(-c2c[nH]c(-c3ccoc3)n2)cc1	Non-toxic	> 300	100	inactive	> 300	Non-toxic	> 300	100	inactive	inactive	Non-toxic	> 100	Non-toxic	inactive	inactive	Toxic	inactive	Non-toxic	Active	inactive	Activity (Mus musculus [23]): Toxic
FC(F)(F)c1ccc(-c2c[nH]c(-c3ccccc3)n2)cc1	Non-toxic	100	100	inactive	> 300	Non-toxic	> 300	100	inactive	inactive	Non-toxic	100	Non-toxic	inactive	inactive	Toxic	inactive	Non-toxic	Active	inactive	Activity (Mus musculus [26]): Active; Activity (Mus musculus [24]): inactive
COc1cccc(-c2nc(-c3ccccc3)c[nH]2)c1	Non-toxic	> 300	> 30		100	Non-toxic	> 300	> 30	inactive	inactive	Non-toxic	> 300	Non-toxic	inactive	inactive	Non-toxic	inactive	Non-toxic	Active	inactive	Activity (Mus musculus [9]): Active; Activity (Mus musculus [14]): Active; Activity (Mus musculus [25]): Toxic
c1ccc(-c2c[nH]c(-c3ccsc3)n2)cc1	Non-toxic	> 300	100	inactive	> 300	Non-toxic	> 300	100	inactive	inactive	Non-toxic	> 300	Non-toxic	inactive	inactive		inactive	Non-toxic	Active	inactive	Activity (Mus musculus [9]): Active; Activity (Mus musculus [26]): inactive; Activity (Mus musculus [24]): inactive
c1ccc(-c2c[nH]c(-c3cc4ccccc4o3)n2)cc1	Non-toxic	> 300	> 300	inactive	> 300	Non-toxic	> 300	> 300	inactive	inactive	Non-toxic	> 300	Non-toxic	inactive	inactive		inactive	Non-toxic	inactive	inactive	Activity (Mus musculus [9]): inactive; Activity (Mus musculus [14]): inactive; Activity (Mus musculus [26]): inactive; Activity (Mus musculus [24]): inactive
Clc1cccc(-c2nc(-c3ccccc3)c[nH]2)c1	Non-toxic	> 300	100	inactive	100	Non-toxic	100	100	inactive	inactive	Non-toxic	> 300	Non-toxic	inactive	inactive	Non-toxic	inactive	Non-toxic	Active	inactive	Activity (Mus musculus [14]): Active; Activity (Mus musculus [26]): inactive; Activity (Mus musculus [25]): Non-toxic; Activity (Mus musculus [24]): Active
